Experimental data as given in patent US8884061B2, “Compositions and methods of use of electron transport system inhibitors” (priority 2006, dated 2014).
≈ marks a conversion by molar mass, not a printed value.

Assays:
[1] = system: E. faecalis NCTC 12201 (VRE); assay: MIC, other bacteria (Table 3); assay type: cell-based; conditions: high level VCM-resistant, Van A, inoculum size 10^6 CFU/ml
[2] = system: MRSA 2441-05262; assay: MIC, other bacteria (Table 3); assay type: cell-based, S. aureus; conditions: inoculum size 10^6 CFU/ml
[3] = system: E. faecium NCTC 12203 (VRE); assay: MIC, other bacteria (Table 3); assay type: cell-based; conditions: high level VCM-resistant, Van A, inoculum size 10^6 CFU/ml
[4] = system: E. faecalis ATCC 51299 (VRE); assay: MIC, other bacteria (Table 3); assay type: cell-based; conditions: low level VCM-resistant, Van B, inoculum size 10^6 CFU/ml
[5] = system: M. fortuitum NIHJ1615; assay: MIC, agar (7H11) dilution method; assay type: cell-based
[6] = system: P. mirabilis ATCC 4630; assay: MIC, other bacteria (Table 3); assay type: cell-based; conditions: inoculum size 10^6 CFU/ml
[7] = system: M. avium Flamingo; assay: MIC, agar (7H11) dilution method; assay type: cell-based
[8] = system: MRSE 2442-05118; assay: MIC, other bacteria (Table 3); assay type: cell-based, S. epidermidis; conditions: inoculum size 10^6 CFU/ml
[9] = system: VRSA 2441-T0041; assay: MIC, other bacteria (Table 3); assay type: cell-based, S. aureus; conditions: VRSA 2441-T0041, low level VCM-resistant; inoculum size 10^6 CFU/ml
[10] = system: S. aureus ATCC 29213; assay: MIC, other bacteria (Table 3); assay type: cell-based; conditions: inoculum size 10^6 CFU/ml
[11] = system: S. epidermidis ATCC 12228; assay: MIC, other bacteria (Table 3); assay type: cell-based; conditions: inoculum size 10^6 CFU/ml
[12] = system: S. marsascens ATCC 14756; assay: MIC, other bacteria (Table 3); assay type: cell-based; conditions: inoculum size 10^6 CFU/ml
[13] = system: K. pneumoniae ATCC 27736; assay: MIC, other bacteria (Table 3); assay type: cell-based; conditions: inoculum size 10^6 CFU/ml
[14] = system: E. faecium ATCC 49224; assay: MIC, other bacteria (Table 3); assay type: cell-based; conditions: E. faecium ATCC 49224, GM-resistant; inoculum size 10^6 CFU/ml
[15] = system: M. bovis BCG Tokyo; assay: microbe, parasite or virus in culture; assay type: cell-based; conditions: M. bovis BCG Tokyo; agar (7H11) dilution
[16] = system: MRSA 2441-05112; assay: MIC, other bacteria (Table 3); assay type: cell-based, S. aureus; conditions: inoculum size 10^6 CFU/ml
[17] = system: MRSA 2441-05129; assay: MIC, other bacteria (Table 3); assay type: cell-based, S. aureus; conditions: inoculum size 10^6 CFU/ml
[18] = system: MRSE 2442-05053; assay: MIC, other bacteria (Table 3); assay type: cell-based, S. epidermidis; conditions: inoculum size 10^6 CFU/ml
[19] = system: MRSE 2442-05110; assay: MIC, other bacteria (Table 3); assay type: cell-based, S. epidermidis; conditions: inoculum size 10^6 CFU/ml
[20] = system: M. tuberculosis Kurono; assay: MIC, agar (7H11) dilution method; assay type: cell-based; conditions: M. tuberculosis Kurono; agar (7H11) dilution
[21] = system: VRSA 2441-T0044; assay: MIC, other bacteria (Table 3); assay type: cell-based, S. aureus; conditions: VRSA 2441-T0044, low level VCM-resistant; inoculum size 10^6 CFU/ml
[22] = system: MRSA 2441-05254; assay: MIC, other bacteria (Table 3); assay type: cell-based, S. aureus; conditions: inoculum size 10^6 CFU/ml
[23] = system: M. aurum; assay: MIC, agar (7H11) dilution method; assay type: cell-based
[24] = system: M. tuberculosis H37Rv; assay: MIC, agar (7H11) dilution method; assay type: cell-based; conditions: M. tuberculosis H37Rv
[25] = system: M. kansasii NIHJ1619; assay: MIC, agar (7H11) dilution method; assay type: cell-based
[26] = system: MRSE 2442-05047; assay: MIC, other bacteria (Table 3); assay type: cell-based, S. epidermidis; conditions: inoculum size 10^6 CFU/ml
[27] = system: MRSA 2441-05104; assay: MIC, other bacteria (Table 3); assay type: cell-based, S. aureus; conditions: inoculum size 10^6 CFU/ml
[28] = system: MRSE 2442-05030; assay: MIC, other bacteria (Table 3); assay type: cell-based, S. epidermidis; conditions: inoculum size 10^6 CFU/ml
[29] = system: P. aeruginosa ATCC 27853; assay: MIC, other bacteria (Table 3); assay type: cell-based; conditions: inoculum size 10^6 CFU/ml
[30] = system: MRSE 2442-05060; assay: MIC, other bacteria (Table 3); assay type: cell-based, S. epidermidis; conditions: inoculum size 10^6 CFU/ml
[31] = system: E. faecalis ATCC 29212; assay: MIC, other bacteria (Table 3); assay type: cell-based; conditions: inoculum size 10^6 CFU/ml
[32] = system: M. intracellularae ATCC 15984; assay: MIC, agar (7H11) dilution method; assay type: cell-based
[33] = system: E. coli ATCC 25922; assay: MIC, other bacteria (Table 3); assay type: cell-based; conditions: inoculum size 10^6 CFU/ml
[34] = system: M. smegmatis Takeo; assay: MIC, agar (7H11) dilution method; assay type: cell-based
[35] = system: MRSA 2441-05223; assay: MIC, other bacteria (Table 3); assay type: cell-based, S. aureus; conditions: inoculum size 10^6 CFU/ml
[36] = system: S. aureus ATCC 43300 (MRSA); assay: MIC, other bacteria (Table 3); assay type: cell-based; conditions: inoculum size 10^6 CFU/ml

C=CCN(C)CCCCCCCCOc1ccc(C(=O)c2ccc(Cl)cc2)c(Cl)c1 [Cpd #20]
MIC [1]: 12.5 µg/mL (≈ 27.9 µM)
MIC [2]: 25 µg/mL (≈ 55.7 µM)
MIC [3]: 12.5 µg/mL (≈ 27.9 µM)
MIC [4]: 25 µg/mL (≈ 55.7 µM)
Minimum inhibitory concentrations (MIC) [5]: >25 µg/mL
MIC [6]: >100 µg/mL
Minimum inhibitory concentrations (MIC) [7]: 12.5 µg/mL (≈ 27.9 µM)
MIC [8]: 12.5 µg/mL (≈ 27.9 µM)
MIC [9]: 50 µg/mL (≈ 111 µM)
MIC [10]: 25 µg/mL (≈ 55.7 µM)
MIC [11]: 25 µg/mL (≈ 55.7 µM)
MIC [12]: >100 µg/mL
MIC [13]: >100 µg/mL
MIC [14]: 12.5 µg/mL (≈ 27.9 µM)
Minimum inhibitory concentrations (MIC) [15]: 6.25 µg/mL (≈ 13.9 µM)
MIC [16]: 25 µg/mL (≈ 55.7 µM)
MIC [17]: 25 µg/mL (≈ 55.7 µM)
MIC [18]: 12.5 µg/mL (≈ 27.9 µM)
MIC [19]: 12.5 µg/mL (≈ 27.9 µM)
Minimum inhibitory concentrations (MIC) [20]: 6.25 µg/mL (≈ 13.9 µM)
MIC [21]: 50 µg/mL (≈ 111 µM)
MIC [22]: 25 µg/mL (≈ 55.7 µM)
Minimum inhibitory concentrations (MIC) [23]: 12.5 µg/mL (≈ 27.9 µM)
Minimum inhibitory concentrations (MIC) ([24]; table line r7 (1st of 5 so labelled)): 6.25 µg/mL (≈ 13.9 µM)
Minimum inhibitory concentrations (MIC) ([24]; table line r8 (2nd of 5 so labelled)): 6.25 µg/mL (≈ 13.9 µM)
Minimum inhibitory concentrations (MIC) ([24]; table line r9 (3rd of 5 so labelled)): 6.25 µg/mL (≈ 13.9 µM)
Minimum inhibitory concentrations (MIC) ([24]; table line r10 (4th of 5 so labelled)): 6.25 µg/mL (≈ 13.9 µM)
Minimum inhibitory concentrations (MIC) ([24]; table line r11 (5th of 5 so labelled)): 6.25 µg/mL (≈ 13.9 µM)
Minimum inhibitory concentrations (MIC) [25]: 12.5 µg/mL (≈ 27.9 µM)
MIC [26]: 12.5 µg/mL (≈ 27.9 µM)
MIC [27]: 25 µg/mL (≈ 55.7 µM)
MIC [28]: 12.5 µg/mL (≈ 27.9 µM)
MIC [29]: >100 µg/mL
MIC [30]: 12.5 µg/mL (≈ 27.9 µM)
MIC [31]: 12.5 µg/mL (≈ 27.9 µM)
Minimum inhibitory concentrations (MIC) [32]: 12.5 µg/mL (≈ 27.9 µM)
MIC [33]: >100 µg/mL
Minimum inhibitory concentrations (MIC) [34]: 25 µg/mL (≈ 55.7 µM)
MIC [35]: 25 µg/mL (≈ 55.7 µM)
MIC [36]: 25 µg/mL (≈ 55.7 µM)
